{
  "source": "paper PMC8976378",
  "about": "“NADH oxidase of Mycoplasma hyopneumoniae functions as a potential mediator of virulence” (BMC Veterinary Research, 2022)",
  "biological_target": "rNOX (NADH oxidase, NOX) (Mesomycoplasma hyopneumoniae, UniProt E4QS87)",
  "sequence (E4QS87 entry or part of it)": "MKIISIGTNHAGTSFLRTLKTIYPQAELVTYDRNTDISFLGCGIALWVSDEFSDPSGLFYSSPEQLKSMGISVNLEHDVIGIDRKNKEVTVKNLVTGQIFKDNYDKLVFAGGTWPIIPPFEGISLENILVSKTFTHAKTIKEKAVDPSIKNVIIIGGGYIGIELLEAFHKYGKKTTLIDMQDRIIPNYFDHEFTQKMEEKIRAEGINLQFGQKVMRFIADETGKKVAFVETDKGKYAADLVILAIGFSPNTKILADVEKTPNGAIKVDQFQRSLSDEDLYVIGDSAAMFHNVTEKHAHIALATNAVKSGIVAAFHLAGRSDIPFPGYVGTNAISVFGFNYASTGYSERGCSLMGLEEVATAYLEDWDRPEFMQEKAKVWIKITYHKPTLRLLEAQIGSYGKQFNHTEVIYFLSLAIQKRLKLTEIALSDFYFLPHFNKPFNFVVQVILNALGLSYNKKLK",
  "experiment": "NADH oxidation, absorbance at […] nm",
  "format": "biochemical",
  "conditions": "0.5 mM NADH; 10 uM FAD added; 0.1 M potassium phosphate pH 7.5, 1 mM dithiothreitol; 25 °C; 5 ug/mL enzyme",
  "data": [
    {"compound": "NC(=O)C1=CN([C@@H]2O[C@H](COP(=O)(O)OP(=O)(O)OC[C@H]3O[C@@H](n4cnc5c(N)ncnc54)[C@H](O)[C@@H]3O)[C@@H](O)[C@H]2O)C=CC1", "note": "[NADH]", "values": [
      {"measurement": "NADH oxidation, absorbance at 340 nm", "result": "enzymatic activity of purified rNOX was determined by measuring the oxidation of NADH to NAD^+"}
    ]}
  ]
}
